Source: the NIST ThermoML archive (doi:10.1021/je400951k)
Numbers after ± are expanded uncertainties.

C[C@H]1CC[C@@H]2C[C@H]1C2(C)C (racemic) [(1RS,2SR,5RS)-2,6,6-trimethylbicyclo[3.1.1]heptane]
Liquid, Closed cell (Static) method
Details | vapor or sublimation pressure [kPa]
330.27 K | 2.04 ± 0.086
338.5 K | 3.03 ± 0.12
344.71 K | 4.015 ± 0.17
349.8 K | 4.98 ± 0.2
357.77 K | 7.015 ± 0.29
360.94 K | 8.015 ± 0.33
366.78 K | 10.04 ± 0.41
373.45 K | 13.04 ± 0.53
379.03 K | 16.05 ± 0.65
385.72 K | 20.04 ± 0.81
392.24 K | 25.05 ± 1
397.94 K | 30.04 ± 1.2
407.54 K | 40.03 ± 1.6
415.01 K | 50.03 ± 2

CC(=O)O[C@@H]1C[C@H]2CC[C@]1(C)C2(C)C (relative stereo)
Liquid, Closed cell (Static) method
Details | vapor or sublimation pressure [kPa]
381.09 K | 2.004 ± 0.084
390.08 K | 3.021 ± 0.12
397.1 K | 4.013 ± 0.16
402.69 K | 5.01 ± 0.2
407.45 K | 6.023 ± 0.25
411.6 K | 7.027 ± 0.29
414.92 K | 8.014 ± 0.33
418.66 K | 9.042 ± 0.37
421.67 K | 10.03 ± 0.41
427.93 K | 12.04 ± 0.49
434.61 K | 15.02 ± 0.61
442.35 K | 19.12 ± 0.78
452.64 K | 26.01 ± 1.1
457.89 K | 30.15 ± 1.2
463.13 K | 35 ± 1.4
468.12 K | 40.12 ± 1.6
472.63 K | 45.25 ± 1.8

C=C(C)C1CC=C(C)CC1 (stereo unspecified) [1-methyl-4-(1-methylethenyl)cyclohexene]
Liquid, Closed cell (Static) method
Details | vapor or sublimation pressure [kPa]
346.96 K | 3.01 ± 0.13
353.19 K | 4.013 ± 0.17
358.22 K | 5.008 ± 0.21
362.25 K | 6.002 ± 0.25
366.08 K | 7.018 ± 0.29
369.31 K | 8.018 ± 0.33
372.54 K | 9.043 ± 0.37
375.27 K | 10.02 ± 0.41
379.93 K | 12.04 ± 0.49
386.12 K | 15.04 ± 0.61
394.56 K | 20.01 ± 0.81
401.29 K | 25.04 ± 1
407.1 K | 30.09 ± 1.2
416.21 K | 39.91 ± 1.6
420.21 K | 44.8 ± 1.8

C=C1C2CCC(C2)C1(C)C (stereo unspecified) [2,2-dimethyl-3-methylenebicyclo[2.2.1]heptane]
Details | vapor or sublimation pressure [kPa]
309.7 K, Metastable liquid, Closed cell (Static) method | 1.007 ± 0.044
322.72 K, Closed cell (Static) method, Liquid | 2.026 ± 0.084
331.06 K, Closed cell (Static) method, Liquid | 3.053 ± 0.13
337.27 K, Closed cell (Static) method, Liquid | 4.056 ± 0.17
342.04 K, Closed cell (Static) method, Liquid | 5.043 ± 0.21
346.21 K, Closed cell (Static) method, Liquid | 6.007 ± 0.25
350.07 K, Closed cell (Static) method, Liquid | 7.068 ± 0.29
353.23 K, Closed cell (Static) method, Liquid | 8.029 ± 0.33
355.98 K, Closed cell (Static) method, Liquid | 9.003 ± 0.37
358.83 K, Closed cell (Static) method, Liquid | 10.07 ± 0.41
365.69 K, Closed cell (Static) method, Liquid | 13.05 ± 0.53
369.58 K, Closed cell (Static) method, Liquid | 15.06 ± 0.62
378.51 K, Closed cell (Static) method, Liquid | 20.12 ± 0.82
384.98 K, Closed cell (Static) method, Liquid | 25 ± 1
390.65 K, Closed cell (Static) method, Liquid | 29.95 ± 1.2
399.95 K, Closed cell (Static) method, Liquid | 40.04 ± 1.6
407.61 K, Closed cell (Static) method, Liquid | 50.02 ± 2

C=CC(C)CCCC(C)(C)O (stereo unspecified) [2,6-dimethyl-7-octen-2-ol]
Liquid, Closed cell (Static) method
Details | vapor or sublimation pressure [kPa]
351.52 K | 0.82 ± 0.036
354.37 K | 1.015 ± 0.044
360.41 K | 1.516 ± 0.064
365.22 K | 2.03 ± 0.086
372.31 K | 3.024 ± 0.13
377.4 K | 4.017 ± 0.17
381.86 K | 5.015 ± 0.21
388.97 K | 7.03 ± 0.29
394.58 K | 9.035 ± 0.37
401.82 K | 12.04 ± 0.49
407.61 K | 15.04 ± 0.61
415.17 K | 20.03 ± 0.81
421.59 K | 25.04 ± 1

C=CC(C)CCC=C(C)C (stereo unspecified) [3,7-dimethyl-1,6-octadiene]
Liquid, Closed cell (Static) method
Details | vapor or sublimation pressure [kPa]
316.5 K | 1.26 ± 0.054
322.57 K | 1.76 ± 0.073
327.44 K | 2.26 ± 0.094
334.96 K | 3.26 ± 0.13
340.66 K | 4.26 ± 0.17
345.44 K | 5.26 ± 0.22
349.51 K | 6.26 ± 0.26
356.16 K | 8.25 ± 0.34
361.68 K | 10.23 ± 0.42
373.78 K | 16.25 ± 0.66
379.02 K | 20.26 ± 0.83
385.62 K | 25.26 ± 1
391.11 K | 30.26 ± 1.2

CCCCCCCCO [octan-1-ol]
Liquid, Closed cell (Static) method
Details | vapor or sublimation pressure [kPa]
358.05 K | 1.088 ± 0.047
363.99 K | 1.527 ± 0.064
368.73 K | 2.016 ± 0.086
381.98 K | 4.073 ± 0.17
393.36 K | 7.08 ± 0.29
401.09 K | 10.04 ± 0.41
410.79 K | 15.04 ± 0.61
418.15 K | 20.03 ± 0.82
429.75 K | 30.2 ± 1.2

O [water]
Liquid, Closed cell (Static) method
Details | vapor or sublimation pressure [kPa]
292.54 K | 2.16 ± 0.096
303.48 K | 4.43 ± 0.18
310.23 K | 6.19 ± 0.26
315.78 K | 8.497 ± 0.35
319.82 K | 10.5 ± 0.44
327.62 K | 15.71 ± 0.65
334.02 K | 20.83 ± 0.85
343.07 K | 30.04 ± 1.2
